Test results taken from patent US20260283999A1, “STAT3 INHIBITOR TO TREAT SU[…]” (UNIVERSITY OF FLORIDA RESEARCH FOUNDATION, INCORPORATED, priority 2022, published 2026).

Tests used:
SAH model [1] = assay: Cerebral blood flow by laser speckle perfusion imaging after SAH; assay type: in vivo; details: mice, 48 hours after SAH; 5 mg/kg repetitive dosing following SAH; FIG. 3
Description: (§1) Studies were conducted wherein repetitive dosing on days 1, 2, and 3 following SAH occurred with 5 mg/kg of the p-STAT3 inhibitor. […] The STAT inhibitor used in these studies was LLL12B.
The SAH model utilized modified autologous blood injection to basal cisterns adjacent to right anterior circulation. [Dodd W S, Noda I, Martinez M, Hosaka K, Hoh BL. NLRP3 inhibition attenuates early brain injury and delayed cerebral vasospasm after subarachnoid hemorrhage. J Neuroinflammation. 2021; 18 (1): 163.]. Briefly, mice we anesthetized with 10 mg/kg xylazine and 100 mg/kg ketamine prior to shaving/cleaning the scalp. The tail was prepped, shaved, and cleaned. The mouse's head was fixed to the stereotaxic frame and body temperature maintained at 37° C. using a heating pad. […] The mouse's respiratory rate was closely monitored. […]
Four mice per group were utilized. Cerebral blood flow was measured with a laser speckle perfusion imager at 48 hours after SAH. […] Sufficient readings were able to be achieved without bone flap removal. […] Average perfusion per animal was documented and an imaging voxel with a calculated mean of 9.7 was used to measure bilateral MCA territory perfusion. A ratio of right to left MCA perfusion was calculated for each animal to allow reliable comparisons between groups and to control for variance in baseline blood pressure differences. […]

SAH model [2] = assay: Immunohistochemistry of brain slices after SAH (p-STAT3, Arg1, Cox2, iNOS, TLR-4); assay type: in vivo; details: mice, following SAH; 5 mg/kg on days 1, 2, and 3 following SAH
Description: as §1
The SAH model utilized modified autologous blood injection to basal cisterns adjacent to right anterior circulation. [Dodd W S, Noda I, Martinez M, Hosaka K, Hoh BL. NLRP3 inhibition attenuates early brain injury and delayed cerebral vasospasm after subarachnoid hemorrhage. J Neuroinflammation. 2021; 18 (1): 163.]. Briefly, mice we anesthetized with 10 mg/kg xylazine and 100 mg/kg ketamine prior to shaving/cleaning the scalp. The tail was prepped, shaved, and cleaned. The mouse's head was fixed to the stereotaxic frame and body temperature maintained at 37° C. using a heating pad. The scalp was incised along the sagittal suture from bregma to the nasal bone. The skin was reflected and held in place by retraction. The burr hole was positioned 5.0 mm rostral to bregma and 0.5 mm right of midline. Next, 150 μL of arterial blood was drawn from the tail artery. 50 μL of blood was drawn up into a Hamilton syringe. The syringe needle was passed at a 30° caudal angle until it reached the skull base. The syringe was left in place and blood was manually injected at a rate of 10 μL/min. The mouse's respiratory rate was closely monitored. […]

`CN(C)C(=O)Oc1cccc2c1C(=O)c1cccc(S(N)(=O)=O)c1C2=O` [LLL12B] was tested. Which cerebral blood flow (SAH model [1]) did it give?
The cerebral blood flow was “protective benefit for cerebral blood flow showing decreased risk for ischemia”.

What about the “systemic neuroinflammation (immunochemistry)” value (SAH model [2]) of the same molecule?
The value was “reduces systemic neuroinflammation”.
